The test system of one data set is HSC compartment. Put plainly: Flow cytometric quantitation of hematopoietic stem/progenitor populations and cellularity in bone marrow of treated mice. In kind it is in vivo, C57BL/6NTac mice. As for the experimental part:
HSC phenotype, cell-cycle progression, G-CSF neutralization, and CXCR4 MFI determination by FACS analysis was performed on whole bone marrow (WBM) cells harvested from a tibia and femur pair obtained from SHIPi and vehicle treated 8-12 week old male C57BL/6NTac mice (Taconic). Generation of the CD45.1×CD45.2 strain utilized in the CRU assay were obtained by intercrossing C57BL6/J (CD45.2) and B6.SJL (CD45.1), as previously described.^5 The SUNY Upstate Medical University Committee for Humane Use of Animals approved all animal experiments.
In vivo administration of 3AC was previously described.^14 Briefly, 3AC is resuspended as an emulsion in 0.3% Klucel/H20. Mice were treated via intraperitoneal injection every 24 hrs for 5 days at a final concentration of 26.5 mg/kg. Analysis and transplants were performed on day 6. The 3AC derivative K118 (Soluble SHIPi) was suspended in pure H2O and heated at 100° C. for ˜15 min to allow the compound to enter solution. The delivery method was the same as with 3AC, however, the mice were treated for 5 days at a final concentration of 10 mg/kg. Vehicle cohorts for 3AC were treated with 0.3% Klucel/H20 and K118 were treated with pure H2O.
Cell isolation was performed according to method detailed in Hazen et al.^6 Briefly, WBM was flushed from both femurs and tibias per mouse with a 25-gauge needle, red blood cell lysed (eBioscience), and resuspended in staining media comprised of Hanks Buffered Saline Solution (HBSS), 2% heat inactivated fetal bovine serum (FBS), and 10 mM HEPES (Sigma). The cells harvested for the CRU assay were flushed, red blood cell lysed, washed, and resuspended in sterile phosphate buffered saline (PBS). Peripheral blood mononuclear cells (PBMC) were collected via submandibular bleed in EDTA Micorvette tubes (SARSTEDT).
All antibodies were from BD Biosciences or eBioscience. All WBM, PBMC and BM derived MSC cell populations were Fc blocked on ice for 10 min prior to antibody staining. Global reconstitution was determined by staining PBMC with CD45.1-PeCy7 and CD45.2-APC. Multi-lineage repopulation was determined by staining PBMC with CD3-FITC (145-2C11), CD19-PerCP5.5 (1D3), Mac1-PE (M1/70), Gr1-Alexa700 (RB6-8C5) and NK1.1-APC-Cy7 (PK136). The Lin−cKit+Sca1+CD34−Flk2− (LSKF34−) phenotype was utilized to determine frequency of LT-HSC, ST-HSC, and MPP; the stain was comprised of Lin-PerCP 5.5, cKit-APC (2B8), Sca1-PeCy7 (D7), CD34-FITC (RAM34), Flk2-PE (A2F10). LSKF-CXCR4 stain was used to determine surface expression of the homing marker CXCR4. All cells were washed twice with staining media, resuspended in staining media plus DAPI for dead cell exclusion, and then analyzed on a flow cytometer LSRII (BD Biosciences). All flow cytometry data was analyzed using FlowJo (9.4.3) software.

The test system of a further data set is LT-HSC. Put plainly: Cell cycle analysis of BM LT-HSC (Hoechst / Pyronin Y). Type of data set: in vivo, C57BL/6NTac mice. Particulars: 3AC 26.5 mg/kg i.p. 5 days, vs vehicle. As for the experimental part: WBM cells were stained with LSKCD34 and fixed in BD Cytofix/Cytoperm buffer for 30 minutes on ice. Fixed cells were stained with 10 μM Hoechst 33342 (HO; Sigma-Aldrich) for 45 min at 37° C. The cells were then incubated with 5 μM Pyronin Y (PY; Sigma-Aldrich) in HBSS medium with 2% FBS in the presence of 50 μM verapamil (Sigma-Aldrich) for 30 minutes at 37° C., washed, and immediately analyzed by UV laser-equipped BD LSRII analyzer.

The test system of the next data set is HSC. The data set is described as follows: CRU assay (competitive repopulating units), primary and secondary. In kind it is in vivo, mice. As for the experimental part:
CD45.1^+45.2^+-recipient mice were given a split dose of 550 Rads (x-ray source, RS2000-RAD source technologies, inc.) 4 hours apart for a lethal total dose of 1100 Rads. WBM (5×10^5) cells from 3AC (CD45.2) treated mice were competed with WBM cells from vehicle (CD45.1) treated mice and injected retro-orbitally into CD45.1^+45.2^+ hosts. PBMC multi-lineage reconstitution was evaluated every month post-transplant for 4 months. Transplanted mice were euthanized and serially transplanted to determine self-renewal capacity. Repopulating Units (RU) determination was previously decribed.^15 Briefly, RU=(C×CD45.2 repopulation %)/(100−CD45.2 repopulation %) where C=10^5 competitor cells.^6
Normal Repopulating units (RU) are calculated based on total number of competitor cells transplanted. Due to the expansion in the bone marrow compartment of SHIPi treated mice, we calculated the absolute RU numbers based on RU output determined by CRU assay and total BM cellularity. Total BM cellularity was determined via hemacytometer (BioRAD, TC20 cell counter) based on a total BM cells obtained from an intact set of femurs and tibias for each mouse in the study. Absolute RU=(Total BM cellularity/5×10^5)×RU.

A further data set relates to PDGFRα+CD51+ MSC. The data set is described as follows: In vivo MSC immunophenotyping by flow cytometry. Also noted: species or system mice. Particulars: 3AC 26.5 mg/kg i.p. 5 days, vs vehicle. The procedure:
PDGFRα^+CD51^+ MSC were detected using methods and reagents as described by Iyer et al.^8 Femurs, tibias, humeri, ulnas, radii, and pelvis were dissected; the bone fragments were cleaned, cut into tiny pieces, and then crushed using a mortar and pestle. The bone chips were then washed several times in HBSS supplemented with 2% heat-inactivated FBS (HBSS/2% HI-FBS) and HBSS only, and then spun at 350×g for 5 mins. The pellet was re-suspended in 3 mg/mL type I collagenase (Worthington) and 15 μg/mL DNAase (Sigma, St. Louis, Mo.) dissolved in HBSS and incubated at 37° C. for 30 min at 110 rpm, this step was repeated twice. Following incubation, mononuclear cells were obtained using a Ficoll gradient ([…] and Histopaque-1077; Sigma, St. Louis, Mo.), and were then used for further analysis. Cells were stained with antibodies as described in Iyer et al.^8

The next data set has as its system G-CSF. Put plainly: G-CSF ELISA of serum of treated mice. In kind it is in vivo. Particulars: 3AC 26.5 mg/kg i.p. 5 days, vs vehicle. As for the experimental part:
Peripheral blood was collected in serum separation microvette tubes (SARSTEDT). Tubes were kept at room temperature for 2 hrs. and then spun at 2000×g for 20 min as per manufacturers recommendation. Serum levels of G-CSF in treated mice were determined using a Mouse G-CSF Quantikine Elisa kit (R&D systems).

Data set [1] has as its system radiation-induced myeloablation. The data set is described as follows: Lymphocyte and WBC recovery in radiation induced bone marrow failure model. Particulars: 550 Rads sub-lethal irradiation, 3AC daily 7 days i.p., vs vehicle. In kind it is in vivo, C57BL/6J mice. As for the experimental part: We utilized a radiation-induced hematological myeblation to create our bone marrow failure model. C57BL/6J mice (8-12 week) (The Jackson Laboratory, Bar Harbor, Me.) were sub-lethally irradiated at 550 Rads. 3AC and vehicle were administered daily for 7 days post irradiation via IP injection. PB was collected by submandibular bleeding on days 8, 15, 22 and 32 and analyzed for WBC and lymphocyte counts [Thousands per microliter (K/uL)] on a Hemavet 950S (Drew Scientific, Waterbury, Conn., USA) analysis.

The conditions of data set [2]: cited from earlier work.
The subject of data set [3] is radiation-induced myeloablation. Particulars: post radiation-induced myeloablation; cited from earlier work.
For data set [4] the following is noted: transient SHIPi treatment; cited from earlier work.
The mark [5] stands for this setting: 3AC 26.5 mg/kg i.p. 5 days, BM, vs vehicle.
The mark [6] stands for this setting: 3AC 26.5 mg/kg i.p. 5 days, vs vehicle.

The structures appear in SMILES notation.

`CC(C)CCC[C@@H](C)[C@@H]1CC[C@H]2[C@@H]3CCC4C[C@H](N)CC[C@]4(C)[C@H]3CC[C@@]21C` (stereo partly drawn) [3AC]: in the data set with HSC compartment (setting [5]), the “absolute number of LSK cells” value was “significantly increases” and the “frequency of LSK cells” value is listed as “significantly increases”. In the data set with HSC compartment (3AC 26.5 mg/kg i.p. 5 days, MFI by FACS), the “CXCR4 surface expression on expanded HSC pool” value is listed as “does not cause a reduction”. Besides, in the data set with HSC compartment (setting [6]), the “frequency of LT-HSC (LSKFlk2-CD34-) in BM” value is “increases the frequency”, the “frequency of MPP (LSKFlk2+CD34+) in BM” value is reported as “increases the frequency” and the “frequency of ST-HSC (LSKFlk2-CD34+) in BM” value is “increases the frequency”. In addition, in the data set with HSC compartment (3AC 26.5 mg/kg i.p. 5 days, frequency combined with BM cellularity), the “expansion in BM of cells with a primitive HSC phenotype” value is 3-4 fold. In the data set with HSC compartment (3AC 26.5 mg/kg i.p. every 24 hrs for 5 days, analysis day 6, vs vehicle), the “bone marrow cellularity (BMC)” value is given as “significant increase”. Further, the “frequency of LT-HSC in S and G2 phases of the cell cycle” value in the data set with LT-HSC is recorded as “significantly greater frequency”. For the same compound, the CRU frequency entry in the data set with HSC (BM of 3AC vs vehicle donors) is listed as “increases”. The “increase in cells with HSC capacity (absolute CRU numbers)” value in the data set on HSC (after accounting for total BM cellularity, vs vehicle) is reported as about 6 fold. For the same compound, in the data set on HSC (primary CRU, 3AC-treated vs vehicle-treated donors, monthly for 4 months post-transplant), the “global blood cell reconstitution by BM cells of treated donors” value is “significantly greater”. In addition, the “lineage reconstitution (B, T, NK, myeloid)” value in the data set on HSC (primary CRU, entire post-transplant period) was “greater proportion of all major blood cell lineages analyzed”. In the data set with HSC (secondary CRU hosts, 1 month post-transplant), the “bias or impairment in lineage output after serial transfer” value is recorded as “did not observe a significant bias or impairment”. Further, the “repopulation of all major lineages in secondary hosts” value in the data set on HSC (secondary CRU, vs competing vehicle BM) is recorded as “significantly higher”. Further, in the data set on PDGFRα+CD51+ MSC, the “Pα+51+ MSC compartment size in BM” value is given as “approximate doubling”. Besides, in the data set on G-CSF, the “G-CSF production in vivo” value is on record as “super-induces”. In the data set on G-CSF (listed as SHIPi), the “G-CSF production in vivo” value is recorded as “increases”. In addition, in data set [1], the “recovery of lymphocyte numbers” value is reported as “significantly improved recovery” and the “recovery of white blood cell (WBC) numbers” value is listed as “significantly improved recovery”. For the same compound, the aqueous solubility result in data set [2] is recorded as “poor aqueous solubility”. In addition, in data set [3], the “recovery of neutrophil numbers” value was “more rapid recovery” and the “recovery of platelet numbers” value is reported as “more rapid recovery”. Moreover, in [4], the “development of pulmonary and gastrointestinal inflammation” value is on record as “does not induce”.

Source of the values: patent US20200129523A1, “SHIP INHIBITION TO INDUCE EXPRESSION OF GRANULOCYTE COLONY STIMULATING FACTOR IN A SUBJECT” (THE RESEARCH FOUNDATION FOR THE STATE UNIVERSITY OF NEW YORK, priority 2014, published 2020).
